Assay [1] has as its target Human plasma kallikrein (Homo sapiens (Human), UniProt P03952). Briefly: Plasma Kallikrein Assay. Format: biochemical. Conditions: purified Human plasma kallikrein 0.5 nM, substrate Acetyl-K-P-R-AFC, pH 7.4; read-out: PKal IC50. The protocol:
(§1) The effectiveness of a compound of the present invention as an inhibitor of plasma kallikrein can be determined using a relevant purified serine protease, and an appropriate synthetic substrate. The rate of hydrolysis of the chromogenic or fluorogenic substrate by the relevant serine protease was measured both in the absence and presence of compounds of the present invention. Assays were conducted at rt or at 37° C. […] A decrease in the rate of fluorescence change in the presence of inhibitor is indicative of enzyme inhibition. Such methods are known to one skilled in the art. The results of this assay are expressed as the half-maximal inhibitory concentrations (IC50), or the inhibitory constant, Ki.
Plasma kallikrein determinations were made in 50 mM HEPES buffer at pH 7.4 containing 150 mM NaCl, 5 mM CaCl2, and 0.1% PEG 8000 (polyethylene glycol; Fisher Scientific). Determinations were made using purified Human plasma kallikrein at a final concentration of 0.5 nM (Enzyme Research Laboratories) and the synthetic substrate, Acetyl-K-P-R-AFC (Sigma #C6608) at a concentration of […].
Activity assays were performed by diluting a stock solution of substrate at least tenfold to a final concentration ≤0.2 Km into a solution containing enzyme or enzyme equilibrated with inhibitor. Times required to achieve equilibration between enzyme and inhibitor were determined in control experiments. The reactions were performed under linear progress curve conditions and fluorescence increase measured at 405 Ex/510 Em nm. Values were converted to percent inhibition of the control reaction (after subtracting 100% Inhibition value). IC50 was determined by inflection point from a four parameter logistic curve fit. Ki was calculated using the Cheng Prusoff equation, Ki=IC50/(1+[S]/Km)).

Assay [2] has as its target Coagulation factor XIa (Homo sapiens (Human), UniProt P03951). Nature of the assay: Factor XIa Assay. The assay is classed as biochemical. As to conditions: human factor XIa 0.04 nM, substrate GPR-AFC, 30 min pre-incubation at 25° C., pH 7.4; read-out: FXIa IC50. How it is done: as §1, with “Coagulation factor XIa” for “plasma kallikrein”
Compounds were pre-incubated for 30 min at 25° C. with human (0.04 nM) factor XIa in 50 mM HEPES buffer with 150 mM sodium chloride, 5 mM calcium chloride, 0.1% PEG 8000, pH 7.4. factor XIa enzymatic activity was determined by addition of the substrate glycine-proline-arginine-7-amido-4-trifluoromethylcoumarin (GPR-AFC) and measurement of the fluorescence at 400/505 nm after a 60 min incubation at 25° C. The % inhibition for each data point was calculated from the data and analyzed using the log (inhibitor) vs. response four parameters equation to determine the half-maximal inhibitory concentrations (IC50). The IC50 were converted to equilibrium inhibitory constants (Ki) using the Cheng-Prusoff equation.

Results on 17 compounds are retold here after US20240190892A1, “PLASMA KALLIKREIN INHIBITORS” (Merck Sharp & Dohme LLC, priority 2021, published 2024).

What is called IC50 is the concentration that gives 50% inhibition.

Chain of Coagulation factor XIa (P03951 388-625 limits assumed): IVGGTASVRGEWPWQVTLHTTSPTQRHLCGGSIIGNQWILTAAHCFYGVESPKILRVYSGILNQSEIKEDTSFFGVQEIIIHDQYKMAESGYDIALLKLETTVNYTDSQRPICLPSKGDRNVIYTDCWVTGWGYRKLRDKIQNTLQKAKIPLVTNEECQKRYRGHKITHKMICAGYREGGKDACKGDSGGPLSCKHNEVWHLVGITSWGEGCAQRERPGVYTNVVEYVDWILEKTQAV
Chain of Coagulation factor XIa (P03951 19-387 partner limits assumed): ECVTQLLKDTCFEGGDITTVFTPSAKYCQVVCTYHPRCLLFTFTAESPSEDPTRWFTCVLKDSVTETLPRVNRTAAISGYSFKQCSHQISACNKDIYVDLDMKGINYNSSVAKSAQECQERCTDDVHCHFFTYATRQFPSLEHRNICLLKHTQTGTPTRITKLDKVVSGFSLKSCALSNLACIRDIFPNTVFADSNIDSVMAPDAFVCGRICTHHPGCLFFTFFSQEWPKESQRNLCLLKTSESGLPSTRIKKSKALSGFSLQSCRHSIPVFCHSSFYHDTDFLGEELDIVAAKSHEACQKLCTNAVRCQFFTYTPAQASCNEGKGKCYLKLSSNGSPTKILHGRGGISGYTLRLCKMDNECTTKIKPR
Chain of Human plasma kallikrein (P03952 391-638 limits assumed): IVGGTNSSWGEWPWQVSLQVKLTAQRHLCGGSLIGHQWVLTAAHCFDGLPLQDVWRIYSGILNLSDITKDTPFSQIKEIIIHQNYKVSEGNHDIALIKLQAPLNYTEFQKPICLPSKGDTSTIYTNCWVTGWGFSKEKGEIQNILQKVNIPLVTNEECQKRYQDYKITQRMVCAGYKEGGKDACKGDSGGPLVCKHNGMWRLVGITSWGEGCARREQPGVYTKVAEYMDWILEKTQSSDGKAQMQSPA
Chain of Human plasma kallikrein (P03952 20-390 partner limits assumed): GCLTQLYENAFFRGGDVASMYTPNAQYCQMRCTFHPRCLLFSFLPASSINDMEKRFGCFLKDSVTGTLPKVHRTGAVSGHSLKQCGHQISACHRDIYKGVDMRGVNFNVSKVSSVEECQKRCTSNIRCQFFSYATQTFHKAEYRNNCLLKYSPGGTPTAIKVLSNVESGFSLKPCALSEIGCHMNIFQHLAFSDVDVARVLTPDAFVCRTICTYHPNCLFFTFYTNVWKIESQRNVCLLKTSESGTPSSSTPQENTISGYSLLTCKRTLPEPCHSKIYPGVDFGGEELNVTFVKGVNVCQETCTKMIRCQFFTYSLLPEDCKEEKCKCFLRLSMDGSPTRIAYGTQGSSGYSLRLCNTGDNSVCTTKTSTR

Take `O=C1Nc2ccc(Cl)c(F)c2[C@]2(CCN(c3cc(C(=O)NCc4ccc(N5CCC(F)(F)C5)nc4)cnn3)C2)O1` [Example 6, (S)-6-(6-Chloro-5-fluoro-2-oxo-1,2-dihydrospiro[benzo[d][1,3]oxazine-4,3′-pyrrolidin]-1′-yl)-N-((6-(3,3-difluoropyrrolidin-1-yl)pyridin-3-yl)methyl)pyridazine-4-carboxamide]: the IC50 in assay [1] was found to be 0.004 µM; in assay [2], 10 µM.
In the same order, the values of `CCC(C)NCc1ccc(CNC(=O)c2cnnc(N3CC[C@]4(C3)OC(=O)Nc3ccc(Cl)c(F)c34)c2)cc1` (stereo partly drawn) [Example 45, N-(4-((sec-Butylamino)methyl)benzyl)-6-((S)-6-chloro-5-fluoro-2-oxo-1,2-dihydrospiro[benzo[d][1,3]oxazine-4,3′-pyrrolidin]-1′-yl)pyridazine-4-carboxamide] are 0.0158 µM and 10 µM.
In the same order, the values of `O=C1Nc2ccc(Cl)c(F)c2[C@]2(CCN(c3cc(C(=O)NCc4ccc(Cn5ccccc5=O)cc4)cnn3)C2)O1` [Example 17, (S)-6-(6-Chloro-5-fluoro-2-oxo-1,2-dihydrospiro[benzo[d][1,3]oxazine-4,3′-pyrrolidin]-1′-yl)-N-(4-((2-oxopyridin-1(2H)-yl)methyl)benzyl)pyridazine-4-carboxamide] are 0.0163 µM and 10 µM.
In the same order, the values of `Cc1cnn(Cc2ccc(CNC(=O)c3cc(N4CC[C@]5(C4)OC(=O)Nc4ccc(Cl)c(F)c45)ccn3)cc2)c1` [Example 25, (S)-4-(6-Chloro-5-fluoro-2-oxo-1,2-dihydrospiro[benzo[d][1,3]oxazine-4,3′-pyrrolidin]-1′-yl)-N-(4-((4-methyl-1H-pyrazol-1-yl)methyl)benzyl)picolinamide] are 0.0165 µM and 10 µM.
Consider `CN1CC(F)(F)CC1c1ccc(CNC(=O)c2cnnc(N3CC[C@]4(C3)OC(=O)Nc3ccc(Cl)c(F)c34)c2)cn1` (stereo in doubt) [Example 13, (S)-6-(6-Chloro-5-fluoro-2-oxo-1,2-dihydrospiro[benzo[d][1,3]oxazine-4,3′-pyrrolidin]-1′-yl)-N-((6-(4,4-difluoro-1-methylpyrrolidin-2-yl)pyridin-3-yl)methyl)pyridazine-4-carboxamide], for which the concentration for half-maximal inhibition (IC50) was found to be 0.0816 µM in assay [1] and 10 µM in assay [2].
Consider `COCC1CN(c2ccc(CNC(=O)c3cncc(N4CC[C@]5(C4)OC(=O)Nc4ccc(Cl)c(F)c45)n3)cn2)C1` [Example 34, (S)-6-(6-Chloro-5-fluoro-2-oxo-1,2-dihydrospiro[benzo[d][1,3]oxazine-4,3′-pyrrolidin]-1′-yl)-N-((6-(3-(methoxymethyl)azetidin-1-yl)pyridin-3-yl)methyl)pyrazine-2-carboxamide], for which the IC50 was 0.0054 µM in assay [1] and 10 µM in assay [2].
Take `O=C(Cc1ccc(Cn2ccccc2=O)cc1)Nc1cncc(N2CC[C@]3(C2)OC(=O)Nc2ccc(Cl)c(F)c23)c1` [Example 52, (S)-N-(5-(6-Chloro-5-fluoro-2-oxo-1,2-dihydrospiro[benzo[d][1,3]oxazine-4,3′-pyrrolidin]-1′-yl)pyridin-3-yl)-2-(4-((2-oxopyridin-1(2H)-yl)methyl)phenyl)acetamide]: the half-inhibitory concentration (IC50) came to 0.019 µM in assay [1] and 10 µM in assay [2].
For `CCC(F)(F)NCc1ccc(CNC(=O)c2cnnc(N3CC[C@]4(C3)OC(=O)Nc3ccc(Cl)c(F)c34)c2)cc1` [Example 44, (S)-6-(6-Chloro-5-fluoro-2-oxo-1,2-dihydrospiro[benzo[d][1,3]oxazine-4,3′-pyrrolidin]-1′-yl)-N-(4-(((1,1-difluoropropyl)amino)methyl)benzyl)pyridazine-4-carboxamide], in that order: 0.0583 µM and 7.66 µM.
For `O=C1Nc2ccc(Cl)c(F)c2[C@]2(CCN(c3cc(C(=O)NCc4ccc(N5CCC(F)(F)C5)c(F)c4)cnn3)C2)O1` [Example 7, (S)-6-(6-Chloro-5-fluoro-2-oxo-1,2-dihydrospiro[benzo[d][1,3]oxazine-4,3′-pyrrolidin]-1′-yl)-N-(4-(3,3-difluoropyrrolidin-1-yl)-3-fluorobenzyl)pyridazine-4-carboxamide], the IC50 in assay [1] worked out at 0.0335 µM; in assay [2] it was 10 µM.
Turning to `O=C1Nc2ccc(Cl)c(F)c2[C@]2(CCN(c3cncc4c3CCN(Cc3ccc(Cn5ccccc5=O)cc3)C4)C2)O1` [Example 51, (S)-6-Chloro-5-fluoro-1′-(7-(4-((2-oxopyridin-1(2H)-yl)methyl)benzyl)-5,6,7,8-tetrahydro-2,7-naphthyridin-4-yl)spiro[benzo[d][1,3]oxazine-4,3′-pyrrolidin]-2(1H)-one], the IC50 in assay [1] came out at 0.0459 µM; in assay [2], 10 µM.
For `N#CCCN(Cc1ccc(CNC(=O)c2cnnc(N3CC[C@]4(C3)OC(=O)Nc3ccc(Cl)c(F)c34)c2)cc1)C1CC1` [Example 49, (S)-6-(6-Chloro-5-fluoro-2-oxo-1,2-dihydrospiro[benzo[d][1,3]oxazine-4,3′-pyrrolidin]-1′-yl)-N-(4-(((2-cyanoethyl)(cyclopropyl)amino)methyl)benzyl)pyridazine-4-carboxamide], in that order: 0.0089 µM and 10 µM.
With `CCC(NCc1ccc(CNC(=O)c2cnnc(N3CC[C@]4(C3)OC(=O)Nc3ccc(Cl)c(F)c34)c2)cc1)C(F)(F)F` (stereo partly drawn) [Example 46, (S)-6-(6-Chloro-5-fluoro-2-oxo-1,2-dihydrospiro[benzo[d][1,3]oxazine-4,3′-pyrrolidin]-1′-yl)-N-(4-(((1,1,1-trifluorobutan-2-yl)amino)methyl)benzyl) pyridazine-4-carboxamide], the figures for the half-inhibitory concentration (IC50) in assay [1] and in assay [2] were 0.038 µM and 10 µM, respectively.
For `Cc1cnn(Cc2ccc(CNC(=O)c3ccnc(N4CC[C@]5(C4)OC(=O)Nc4ccc(Cl)c(F)c45)c3)cc2)c1` [Example 22, (S)-2-(6-Chloro-5-fluoro-2-oxo-1,2-dihydrospiro[benzo[d][1,3]oxazine-4,3′-pyrrolidin]-1′-yl)-N-(4-((4-methyl-1H-pyrazol-1-yl)methyl)benzyl)isonicotinamide], in that order: 0.0047 µM and 10 µM.
In the same order, the values of `Cc1cnn(Cc2ccc(CNC(=O)c3cncc(N4CC[C@]5(C4)OC(=O)Nc4ccc(Cl)c(F)c45)n3)cc2)c1` [Example 18, (S)-6-(6-Chloro-5-fluoro-2-oxo-1,2-dihydrospiro[benzo[d][1,3]oxazine-4,3′-pyrrolidin]-1′-yl)-N-(4-((4-methyl-1H-pyrazol-1-yl)methyl)benzyl)pyrazine-2-carboxamide] are 0.0128 µM and 10 µM.
For `O=C1Nc2ccc(Cl)c(F)c2[C@]2(CCN(c3cncc(C(=O)NCc4ccc(N5CCC5)nc4)n3)C2)O1` [Example 37, (S)-N-((6-(Azetidin-1-yl)pyridin-3-yl)methyl)-6-(6-chloro-5-fluoro-2-oxo-1,2dihydrospiro[benzo[d][1,3]oxazine-4,3′-pyrrolidin]-1′-yl)pyrazine-2-carboxamide], in that order: 0.0444 µM and 10 µM.
Take `Cc1cnn(Cc2ccc(CNC(=O)c3cc(N4CC[C@]5(C4)OC(=O)Nc4ccc(Cl)c(F)c45)ncn3)cc2)c1` [Example 19, (S)-6-(6-Chloro-5-fluoro-2-oxo-1,2-dihydrospiro[benzo[d][1,3]oxazine-4,3′-pyrrolidin]-1′-yl)-N-(4-((4-methyl-1H-pyrazol-1-yl)methyl)benzyl)pyrimidine-4-carboxamide]: the concentration for half-maximal inhibition (IC50) was 0.0256 µM in assay [1] and 10 µM in assay [2].
As to `O=C1Nc2ccc(Cl)c(F)c2[C@]2(CCN(c3cncc(C(=O)NCc4ccc(Cn5ccccc5=O)nc4)n3)C2)O1` [Example 14, (S)-6-(6-Chloro-5-fluoro-2-oxo-1,2-dihydrospiro[benzo[d][1,3]oxazine-4,3′-pyrrolidin]-1′-yl)-N-((6-((2-oxopyridin-1(2H)-yl)methyl)pyridin-3-yl)methyl)pyrazine-2-carboxamide], the IC50 in assay [1] was found to be 0.0016 µM; in assay [2] it was 10 µM.
